These results are taken from patent US20150283051A1, “DERIVATIVE OF NOVEL POLYHYDROXY AROMATIC COMPOUND AND USE THEREOF” (RNS CO.,LTD., priority 2012, published 2015).

The test system of series [1] is B-16 mouse melanoma cells. Nature of the series: Measurement of melanin generation inhibitory effects in cultured melanoma cells. It counts as cell-based. The note with it: for inhibition at 20 µg/mL: concentration 20 μg/ml.
Series [2] deals with B-16 mouse melanoma cells. As to conditions: 1 μg/ml or more. How it is done: Then, these cells were treated using trypsin, separated from a culture vessel and centrifuged, then, melanin was extracted from the cells. Melanin was dissolved by adding 1 ml of 1N sodium hydroxide solution to the extract and subjected to measurement of absorbance at 475 nm, and an amount of the generated melanin was expressed by an absorbance per unit number of cells (10^6 cells) (this procedure was repeated three times).

Where [3] appears, read: Mus musculus, 72 h, concentration 5 μg/ml, cultured 3 days, relative to control, read-out: Inhibition rate (melanin generation).
Setting [4] is: Mus musculus, 72 h, cultured 3 days, relative to control, read-out: Inhibition rate (melanin generation).

For `CCCCC(=O)Oc1cccc(OC(=O)CCCC)c1` [Material in Example 2, 1,3-bis-pentanoyloxy-benzene], in series [1] (setting [3]), the inhibition at 5 µg/mL is 52%. Also, the inhibition at 20 µg/mL in series [1] (setting [4]) was found to be 85%.

For `Oc1ccc(O)cc1` [Hydroquinone, hydroquinone, reference compound], in series [1] (Mus musculus, 72 h, concentration 1 μg/ml, cultured 3 days, relative to control, read-out: Inhibition rate (melanin generation)), the inhibition at 1 µg/mL is 52%. Moreover, the “Inhibition rate (melanin generation)” value in series [1] (concentration 5 μg/ml, cultured 3 days, relative to control) is reported as “Apoptosis”. The “Melanin generation inhibitory effects (in words)” value in series [1] (cultured mouse melanoma cells, comparison with hydroquinone) is “strong effects of inhibiting melanin generation at a low concentration”. Moreover, in series [2], the Cytotoxicity result is listed as “serious cytotoxicity”.

For `CCCCC(CC)C(=O)Oc1ccc(C=Cc2cc(OC(=O)C(CC)CCCC)cc(OC(=O)C(CC)CCCC)c2)cc1` (stereo not drawn) [Material in Example 11, 3,4′,5-tris-(2-ethylhexanoyloxy)-stilbene], the inhibition at 5 µg/mL in series [1] (setting [3]) came to 31%. In addition, in series [1] (setting [4]), the inhibition at 20 µg/mL was found to be 54%.

`CCCCC(CC)C(=O)Oc1cc(OC(=O)C(CC)CCCC)c2c(c1)OC(c1ccc(OC(=O)C(CC)CCCC)c(OC(=O)C(CC)CCCC)c1)C(OC(=O)C(CC)CCCC)C2` (stereo not drawn) [Material in Example 19, 3,3′,4′,5,7-pentakis-(2-ethylhexanoyloxy)-flavane]: the inhibition at 5 µg/mL in series [1] (setting [3]) came to 39%. The inhibition at 20 µg/mL in series [1] (setting [4]) came to 69%.

Regarding `CCCCC(CC)C(=O)Oc1cccc(OC(=O)C(CC)CCCC)c1` (stereo not drawn) [Material in Example 5, 1,3-bis-(2-ethyl-hexanoyloxy)-benzene], the inhibition at 5 µg/mL in series [1] (setting [3]) turned out to be 45%. Besides, the inhibition at 20 µg/mL in series [1] (setting [4]) was 79%.

As to `CCCCC(CC)C(=O)Oc1ccc(-c2cc(=O)c3c(OC(=O)C(CC)CCCC)cc(OC(=O)C(CC)CCCC)cc3o2)cc1` (stereo not drawn) [Material in Example 14, 5,7,4′-tris-(2-ethylhexanoyloxy)-flavone], the inhibition at 5 µg/mL in series [1] (setting [3]) was determined as 31%. Further, in series [1] (setting [4]), the inhibition at 20 µg/mL came to 57%.

Regarding `CCCCCCCC(=O)Oc1cccc(OC(=O)CCCCCCC)c1` [Material in Example 4, 1,3-bis-octanoyloxy-benzene], in series [1] (setting [3]), the inhibition at 5 µg/mL was 41%. Also, the inhibition at 20 µg/mL in series [1] (setting [4]) came out at 71%.

On to `CCCCCCCCCCCC(=O)Oc1cccc(OC(=O)CCCCCCCCCCC)c1` [Material in Example 7, 1,3-bis-lauroyloxy-benzene], for which the inhibition at 5 µg/mL in series [1] (setting [3]) turned out to be 21%. The inhibition at 20 µg/mL in series [1] (setting [4]) worked out at 43%.

Take `CCCCC(CC)C(=O)Oc1ccc(-c2oc3cc(OC(=O)C(CC)CCCC)cc(OC(=O)C(CC)CCCC)c3c(=O)c2OC(=O)C(CC)CCCC)cc1` (stereo not drawn) [Material in Example 17, 3,5,7,4′-tetrakis-(2-ethylhexanoyloxy)-flavone]: the inhibition at 5 µg/mL in series [1] (setting [3]) came out at 32%. Besides, in series [1] (setting [4]), the inhibition at 20 µg/mL was found to be 69%.

As for `CCCCC(CC)C(=O)Oc1cccc(OC(=O)C(CC)CCCC)c1OC(=O)C(CC)CCCC` (stereo not drawn) [Material in Example 10, 1,2,3-tris-(2-ethylhexanoyloxy)-benzene], the inhibition at 5 µg/mL in series [1] (setting [3]) is 38%. For the same compound, the inhibition at 20 µg/mL in series [1] (setting [4]) is 65%.

`CCCCC(CC)C(=O)Oc1ccc(C2CC(=O)c3c(OC(=O)C(CC)CCCC)cc(OC(=O)C(CC)CCCC)cc3O2)cc1` (stereo not drawn) [Material in Example 16, 4′,5,7-tris-(2-ethylhexanoyloxy)-flavanone]: the inhibition at 5 µg/mL in series [1] (setting [3]) amounted to 41%. For the same compound, in series [1] (setting [4]), the inhibition at 20 µg/mL came out at 59%.

For `CCCC(=O)Oc1cccc(OC(=O)CCC)c1` [Material in Example 1, 1,3-bis-butyryloxy-benzene], the inhibition at 5 µg/mL in series [1] (setting [3]) is 43%. Moreover, the inhibition at 20 µg/mL in series [1] (setting [4]) was found to be 68%.

Take `CCCCC(CC)C(=O)Oc1cc2oc(-c3ccccc3)cc(=O)c2c(OC(=O)C(CC)CCCC)c1OC(=O)C(CC)CCCC` (stereo not drawn) [Material in Example 15, 5,6,7-tris-(2-ethylhexanoyloxy)-flavone]: the inhibition at 5 µg/mL in series [1] (setting [3]) is 39%. For the same compound, the inhibition at 20 µg/mL in series [1] (setting [4]) was determined as 72%.

For the compound `CCCCC(CC)C(=O)Oc1cc(C=Cc2ccc(OC(=O)C(CC)CCCC)c(OC(=O)C(CC)CCCC)c2)cc(OC(=O)C(CC)CCCC)c1` (stereo not drawn) [Material in Example 18, 3,4,3′,5′-tetrakis-(2-ethylhexanoyloxy)-stilbene], the inhibition at 5 µg/mL in series [1] (setting [3]) was 47%. Further, the inhibition at 20 µg/mL in series [1] (setting [4]) is 72%.

Consider `CCCCC(CC)C(=O)Oc1cc(OC(=O)C(CC)CCCC)c2ccccc2c1` (stereo not drawn) [Material in Example 8, 1,3-bis-(2-ethylhexanoyloxy)-naphthalene], for which the inhibition at 5 µg/mL in series [1] (setting [3]) is 35%. In addition, the inhibition at 20 µg/mL in series [1] (setting [4]) came out at 63%.

For the compound `CCCCC(CC)C(=O)Oc1ccnc(OC(=O)C(CC)CCCC)c1` (stereo not drawn) [Material in Example 9, 2,4-bis-(2-ethylhexanoyloxy)-pyridine], the inhibition at 5 µg/mL in series [1] (setting [3]) is 41%. In series [1] (setting [4]), the inhibition at 20 µg/mL turned out to be 67%.

As for `CC(C)=CC(=O)Oc1cccc(OC(=O)C=C(C)C)c1` [Material in Example 3, 1,3-bis-(3-methyl-2-butenoyloxy)-benzene], the inhibition at 5 µg/mL in series [1] (setting [3]) worked out at 53%. Moreover, in series [1] (setting [4]), the inhibition at 20 µg/mL was found to be 83%.

Consider `CCCCCCCCCC(=O)Oc1cccc(OC(=O)CCCCCCCCC)c1` [Material in Example 6, 1,3-bis-decanoyloxy-benzene], for which, in series [1] (setting [3]), the inhibition at 5 µg/mL came to 32%. In series [1] (setting [4]), the inhibition at 20 µg/mL came to 53%.

`CCCCC(CC)C(=O)Oc1cc(OC(=O)C(CC)CCCC)c2c(=O)c(OC(=O)C(CC)CCCC)c(-c3ccccc3)oc2c1` (stereo not drawn) [Material in Example 13, 3,5,7-tris-(2-ethylhexanoyloxy)-flavone]: in series [1] (setting [3]), the inhibition at 5 µg/mL turned out to be 30%. In addition, the inhibition at 20 µg/mL in series [1] (setting [4]) is 63%.

Take `CCCCC(CC)C(=O)Oc1ccc(-c2coc3cc(OC(=O)C(CC)CCCC)cc(OC(=O)C(CC)CCCC)c3c2=O)cc1` (stereo not drawn) [Material in Example 12, 4′,5,7-tris-(2-ethylhexanoyloxy)-isoflavone]: the inhibition at 5 µg/mL in series [1] (setting [3]) came to 35%. Further, the inhibition at 20 µg/mL in series [1] (setting [4]) is 65%.
